Key:
[1] = tested on: cats suffering from asymptomatic HCM; test: clinical field study, echocardiography in cats suffering from asymptomatic HCM; assay type: in vivo; settings: during treatment, days 3 and 6; orally once daily for 5 days; four cats; at baseline not possible in 2 of 4 cats
Description: The use according to the invention of an If channel blocker, namely cilobradine, was investigated in a clinical field study with cats suffering from asymptomatic HCM.
Four cats diagnosed as suffering from asymptomatic HCM by means of motion mode […] (left ventricular wall thickness>6 mm), received cilobradine orally once daily for 5 consecutive days. Detailed clinical examinations were conducted at baseline and on days 1, 2, 3, 6 and 9. ECG measurements were performed at baseline and on days 3 and 6 of the study.
The composition used in the experiment was as follows. • Oral solution containing 2 mg/ml cilobradine • Active ingredient added to 0.9% NaCl solution
The results of the experiment, measuring the left ventricular E to A ratios obtained at baseline and under cilobradine treatment, are shown in enclosed FIG. 1.

[2] = pharmacokinetic studies of oral cilobradine in cats; assay type: in vivo
Description: (§1) For example, the following dosages relevant for practicing the present invention with the bradycardic agent cilobradine in cats and dogs, have been determined in appropriate pharmacokinetic studies performed by the inventors. The single oral dose of cilobradine for potent heart rate reduction in cats is 0.2-0.4 mg/kg. The single oral dose of cilobradine for potent heart rate reduction in dogs is 0.3 mg/kg. […] Peak plasma levels are reached 0.5 hours after oral administration in cats and after 1 to 2 hours in dogs.

[3] = pharmacokinetic studies of oral cilobradine in dogs; assay type: in vivo
Description: as §1

[4] = tested on: hyperpolarisation activated, cAMP-modulated cation current channels (HCN); settings: cardiac conductive tissues; cited from earlier work

| SMILES | Calculation of left ventricular E/A ratios [1] | Time at which peak plasma levels are reached ([2]; after oral administration) | Absolute bioavailability of oral formulations ([2]; oral) | Single oral dose for potent heart rate reduction ([2]; oral) | Absolute bioavailability of oral formulations [3] | Single oral dose for potent heart rate reduction [3] | Block of HCN channels (If current) [4] |
| --- | --- | --- | --- | --- | --- | --- | --- |
| COc1ccc(CCN2CCCC(CN3CCc4cc(OC)c(OC)cc4CC3=O)C2)cc1OC (centres unmarked) [cilobradine] | possible in all cats | 0.5 h | 22.6% | 0.2 to 0.4 mg/kg | 26-43% | 0.3 mg/kg | selectively block |
| COc1ccc(CCN(C)CCCN2CCc3cc(OC)c(OC)cc3CC2=O)cc1OC [zatebradine] |  |  |  |  |  |  | selectively block |

From patent US20070054838A1, “METHOD FOR IMPROVING DIAGNOSTIC QUALITY IN ECHOCARDIOGRAPHY” (priority 2005, published 2007)
